Molecules are shown by their SMILES. Counter-ions that a name gives are not always drawn.

The record followed here is patent US4336389A, “2-Substituted-4-aryl-5-thiazolecarboxylic acids and their derivatives as safening agents” (Monsanto Company, priority 1978, dated 1982).

Format in all cases: in vivo
Experiment [1] relates to rice. Nature of the experiment: Inhibition of rice, safening agent and butachlor applied to soil surface, flooded pots (Example 18, Table IV). The following applies: ~21 days, mean of two replicates. The procedure:
(§1) 5.08 cm. of a good grade of top soil is placed in a 7.62 cm. deep plastic pot. A predetermined number of barnyard grass seeds are applied to the soil surface. A measured quantity of the safening agent and butachlor dispersed or dissolved in a suitable carrier is applied to the soil surface. Pre-soaked rice is seeded into the pots that were previously flooded with water. The water level is lowered below the soil surface for one week. The pots are flooded just above the soil surface for the duration of the test. The plants are observed at the end of approximately 21 days and the results in terms of percent inhibition recorded. For each test, pots are prepared containing soil treated only with butachlor. For each test, pots are prepared containing soil treated only with the safening agent. Pots are also prepared with untreated soil.

In experiment [2] the test system is Barnyard Grass. Nature of the experiment: Inhibition of barnyard grass, safening agent and butachlor applied to soil surface, flooded pots (Example 18, Table IV). The following applies: ~21 days, mean of two replicates. The procedure:
as §1

For experiment [3], the system named is rice. Put plainly: Safening effect against butachlor injury to pre-soaked rice, soil surface application, flooded pots (Example 16, Table II). Also on record: key: herbicide injury alone + safener injury alone (max 100) minus combined injury. The following applies: safening agent 0.56 kg/h, ~21 days, mean of two replicates. The protocol: (§2) A good grade of top soil is placed in a container and compacted to a depth of approximately 1.27 cm. from the top of said container. A predetermined number of rice seeds to be tested are placed on top of the soil. A quantity of soil sufficient to substantially fill the container is measured and placed in a second container. A measured quantity of the safening agent dispersed or dissolved in a suitable carrier is applied to the soil in the second container. A measured quantity of butachlor dispersed or dissolved in a suitable carrier is then sprayed on the soil already treated with the safening agent. The soil containing the safening agent and herbicide is thoroughly mixed. This mixing is sometimes referred to as incorporation of the herbicide and safening agent into the soil. The mixing or incorporation provides a substantially uniform distribution of the safening agent and herbicide throughout the soil. The seeds are covered with the soil containing the safening agent and herbicide and the pans are leveled. The pans are then placed on a sand bench in the greenhouse and watered from below as needed. The plants are observed at the end of approximately 21 days and the results in terms of percent inhibition of each seed lot are recorded. For each test series a pan of plants is also prepared containing no herbicide and no safening agent as a control. Additionally, for each test, a pan of plants is prepared with soil covering the seed containing no herbicide and only the measured amount of safening agent being incorporated into the soil covering the seeds to ascertain any herbicidal effect of the safening agent alone. For each series of tests the herbicidal effect of the herbicide is observed from pans of plants treated with the same quantity of herbicide alone. The "safening effect" is determined by adding the hericidal effect of the herbicide when applied alone to the herbicidal effect of the safening agent when applied alone (in no instance, however, will this sum be greater than 100) and substracting from that the herbicidal effect obtained when the herbicide and safening agent are incorporated into the soil as discussed above.
A good grade of top soil is placed in a plastic pot. A measured quantity of the safening agent dispersed or dissolved in a suitable carrier is sprayed on the soil surface. A measured quantity of butachlor herbicide dissolved in a solvent is sprayed on the soil surface. Presoaked rice is seeded into the pots that were previously flooded with water and the water level lowered below the soil surface for one week. The pots are flooded at least up to the soil surface for the duration of the test. The plants are observed at the end of approximately 21 days and the results in terms of the percent inhibition of rice is recorded. As in Example 15, for each test pots are prepared containing soil treated only with butachlor. For each test, pots are also prepared containing soil treated only with the safening agent. Pots are also prepared in which the soil is not treated with either the herbicide or the safening agent. The safening effect is determined in accordance with Example 15.
Table II summarizes the results obtained when the compounds of the invention were tested in accordance with the procedure of Example 16.

Experiment [4] has as its system rice. Put plainly: Safening effect against butachlor injury to rice, safening agent and herbicide incorporated in soil (Example 15, Table I). Also on record: key: herbicide-alone + safener-alone effect (max 100) minus combined effect. The following applies: safening agent 8.96 kg/h, ~21 days. The protocol:
as §2
Table I summarizes the results obtained when the compounds of the invention were tested in accordance with the procedure of Example 15.

Experiment [5] deals with Barnyard Grass. Nature of the experiment: Inhibition of barnyard grass by butachlor and safening agent sprayed on soil surface, flooded pots (Example 17, Table III). The following applies: ~21 days, mean of two replicates. The protocol:
as §1, with “agent” for “agent and butachlor”, “is sprayed on the soil surface. A measured quantity of butachlor herbicide dissolved in a solvent is sprayed on” for “is applied to”, “one week to allow barnyard grass to emerge.” for “one week.”, “prepared containing” for “prepared with”

Experiment [6] relates to rice. Nature of the experiment: Inhibition of rice by butachlor and safening agent sprayed on soil surface, flooded pots (Example 17, Table III). The following applies: ~21 days, mean of two replicates. The protocol: as §1, with “agent” for “agent and butachlor”, “is sprayed on the soil surface. A measured quantity of butachlor herbicide dissolved in a solvent is sprayed on” for “is applied to”, “one week to allow barnyard grass to emerge.” for “one week.”, “prepared containing” for “prepared with”

Where [7] appears, read: safening agent 1.12 kg/h + butachlor 0.07 kg/h.
Where [8] appears, read: safening agent 1.12 kg/h + butachlor 0.28 kg/h.
[9] abbreviates: safening agent 1.12 kg/h + butachlor 1.12 kg/h.
[10] abbreviates: safening agent 0.07 kg/h + butachlor 0.07 kg/h.
The mark [11] stands for this setting: safening agent 0.07 kg/h + butachlor 0.28 kg/h.
Setting [12] is: safening agent 0.07 kg/h + butachlor 1.12 kg/h.
The mark [13] stands for this setting: safening agent 0.28 kg/h + butachlor 0.07 kg/h.
[14] abbreviates: safening agent 0.28 kg/h + butachlor 0.28 kg/h.
Where [15] appears, read: safening agent 0.28 kg/h + butachlor 1.12 kg/h.

Regarding `CCOC(=O)c1sc(Oc2ccc(Cl)cc2Cl)nc1-c1ccccc1` [Ethyl 2-(2',4'-dichlorophenoxy)-4-phenyl-5-thiazolecarboxylate], the “% Inhibition, Rice” value in the experiment on rice [1] (setting [7]) worked out at 15%; in the experiment with rice [1] (setting [8]), 88%; in the experiment with rice [1] (setting [9]), 99%; in the experiment on rice [1] (safening agent alone 1.12 kg/h), 0%. Besides, the “% Inhibition, Barnyard Grass” value in the experiment with Barnyard Grass [2] (setting [7]) stood at 83%; in the experiment with Barnyard Grass [2] (setting [8]), 98%; in the experiment with Barnyard Grass [2] (setting [9]) it was 100%; in the experiment on Barnyard Grass [2] (safening agent alone 1.12 kg/h) it was 0%.
As for `CCOC(=O)c1sc(Cl)nc1-c1cccc(C(F)(F)F)c1` [Example 2, Ethyl 2-Chloro-4-m-Trifluoromethylphenyl-5-thiazolecarboxylate], the “Safening Effect” value in the experiment with rice [3] (butachlor 0.07 kg/h) was 68; with rice [3] (butachlor 0.28 kg/h) it was 26; with rice [3] (butachlor 1.12 kg/h) it was “* (Safening effect between 0 and 20)”; with rice [4] (butachlor 4.48 kg/h) it was 50.
Take `CCOC(=O)c1sc(Cl)nc1-c1ccc(F)cc1` [Example 3, Ethyl 2-Chloro-4-(p-Fluorophenyl)-5-Thiazolecarboxylate]: the “Inhibition, Barnyard Grass” value was 97% in the experiment on Barnyard Grass [5] (setting [10]); 99% in the experiment with Barnyard Grass [5] (setting [11]); 100% with Barnyard Grass [5] (setting [12]); 92% in the experiment with Barnyard Grass [5] (setting [13]); 100% with Barnyard Grass [5] (setting [14]); 100% with Barnyard Grass [5] (setting [15]). In addition, the “Inhibition, Barnyard Grass” value is listed as 92% with Barnyard Grass [5] (setting [7]); 100% in the experiment with Barnyard Grass [5] (setting [8]); 100% with Barnyard Grass [5] (setting [9]); 0% in the experiment on Barnyard Grass [5] (safening agent alone 0.07 kg/h); 0% in the experiment on Barnyard Grass [5] (safening agent alone 0.28 kg/h); 0% with Barnyard Grass [5] (safening agent alone 1.12 kg/h). For the same compound, the “Safening Effect” value was 30 in the experiment on rice [3] (butachlor 0.07 kg/h), 73 in the experiment on rice [3] (butachlor 0.28 kg/h), 62 in the experiment on rice [3] (butachlor 1.12 kg/h) and 65 with rice [4] (butachlor 6.72 kg/h). The “Inhibition, Rice” value in the experiment on rice [6] (setting [10]) is reported as 0%; in the experiment with rice [6] (setting [11]) it was 5%; in the experiment with rice [6] (setting [12]) it was 70%; in the experiment on rice [6] (setting [13]), 0%; in the experiment with rice [6] (setting [14]), 5%; with rice [6] (setting [15]), 58%. For the same compound, the “Inhibition, Rice” value is listed as 0% with rice [6] (setting [7]); 0% with rice [6] (setting [8]); 43% with rice [6] (setting [9]); 0% in the experiment on rice [6] (safening agent alone 0.07 kg/h); 0% in the experiment with rice [6] (safening agent alone 0.28 kg/h); 0% with rice [6] (safening agent alone 1.12 kg/h).
As to `CCOC(=O)c1sc(Cl)nc1-c1ccccc1Cl` [Example 5, Ethyl 2-Chloro-4-(o-Chlorophenyl)-5-Thiazolecarboxylate], in the experiment with rice [4] (butachlor 6.72 kg/h), the “Safening Effect” value worked out at 65.
Consider `CCOC(=O)c1sc(Cl)nc1-c1cccc(C)c1` [Example 6, Ethyl 2-Chloro-4-(m-Tolyl)-5-Thiazolecarboxylate], for which, in the experiment on rice [4] (butachlor 6.72 kg/h), the “Safening Effect” value is 65.
For `CCOC(=O)c1sc(Cl)nc1-c1ccc([N+](=O)[O-])cc1` [Example 7, Ethyl 2-Chloro-4-(p-Nitrophenyl)-5Thiazolecarboxylate], the “Safening Effect” value in the experiment with rice [3] (butachlor 0.07 kg/h) was “* (Safening effect between 0 and 20)”; in the experiment on rice [3] (butachlor 0.28 kg/h) it was 38; with rice [3] (butachlor 1.12 kg/h) it was “* (Safening effect between 0 and 20)”; in the experiment on rice [4] (butachlor 4.48 kg/h), 25.
As to `CCOC(=O)c1sc(OCC)nc1-c1ccccc1` [Example 8, Ethyl 2-Ethoxy-4-Phenyl-5-Thiazolecarboxylate], the “% Inhibition, Rice” value in the experiment with rice [1] (setting [7]) was 30%; with rice [1] (setting [8]), 88%; with rice [1] (setting [9]) it was 95%; in the experiment on rice [1] (safening agent alone 1.12 kg/h), 0%. In addition, the “Safening Effect” value in the experiment with rice [4] (butachlor 4.48 kg/h) is listed as 75. Also, the “% Inhibition, Barnyard Grass” value came to 100% with Barnyard Grass [2] (setting [7]), 100% in the experiment with Barnyard Grass [2] (setting [8]), 100% in the experiment with Barnyard Grass [2] (setting [9]) and 0% in the experiment on Barnyard Grass [2] (safening agent alone 1.12 kg/h).
For the compound `CCOC(=O)c1sc(OCC)nc1-c1cccc(C(F)(F)F)c1` [Example 9, Ethyl 2-Ethoxy-4-(m-Trifluoromethylphenyl)-5-Thiazolecarboxylate], in the experiment on rice [4] (butachlor 4.48 kg/h), the “Safening Effect” value is 20.
With `CCOC(=O)c1sc(Oc2ccc(Cl)cc2Cl)nc1-c1cccc(C(F)(F)F)c1` [Example 10, Ethyl 2-(2',4'-Dichlorophenoxy)-4-(m-Trifluoromethylphenyl)-5-Thiazolecarboxylate], the “Safening Effect” value in the experiment with rice [3] (butachlor 0.07 kg/h) is “* (Safening effect between 0 and 20)”; in the experiment on rice [3] (butachlor 0.28 kg/h) it was “* (Safening effect between 0 and 20)”; with rice [3] (butachlor 1.12 kg/h), “* (Safening effect between 0 and 20)”; in the experiment with rice [4] (butachlor 4.48 kg/h), 43.
`O=C(O)c1sc(Cl)nc1-c1ccccc1` [Example 11, 2-Chloro-4-Phenyl-5-Thiazolecarboxylic Acid]: the “Safening Effect” value is “* (Safening effect between 0 and 20)” with rice [3] (butachlor 0.07 kg/h); 63 in the experiment with rice [3] (butachlor 0.28 kg/h); 45 in the experiment with rice [3] (butachlor 1.12 kg/h); 50 in the experiment with rice [4] (butachlor 4.48 kg/h).
As to `O=C(Cl)c1sc(Cl)nc1-c1ccccc1` [Example 12, 2-Chloro-4-Phenyl-5-Thiazolecarbonyl Chloride], the “Safening Effect” value is given as 35 in the experiment with rice [3] (butachlor 0.07 kg/h), 80 with rice [3] (butachlor 0.28 kg/h), 62 in the experiment with rice [3] (butachlor 1.12 kg/h) and 50 with rice [4] (butachlor 4.48 kg/h).
Consider `COC(=O)c1sc(Cl)nc1-c1ccccc1` [Example 13, Methyl 2-Chloro-4-Phenyl-5-Thiazolecarboxylate], for which the “Safening Effect” value in the experiment on rice [4] (butachlor 4.48 kg/h) is reported as 30.
On to `CCCOC(=O)c1sc(Cl)nc1-c1ccccc1` [Example 14, n-Propyl 2-Chloro-4-Phenyl-5-Thiazolecarboxylate], for which, in the experiment with rice [4] (butachlor 4.48 kg/h), the “Safening Effect” value is on record as 20.
Turning to `O=C(O)c1sc(Cl)nc1-c1ccccc1` [triethanolamine salt of 2-chloro-4-phenyl-5-thiazolecarboxylic acid], the “% Inhibition, Rice” value in the experiment on rice [1] (setting [7]) is 0%; in the experiment with rice [1] (setting [8]) it was 20%; in the experiment on rice [1] (setting [9]), 60%; with rice [1] (safening agent alone 1.12 kg/h), 0%. Also, the “% Inhibition, Barnyard Grass” value in the experiment with Barnyard Grass [2] (setting [7]) was determined as 88%; with Barnyard Grass [2] (setting [8]) it was 99%; in the experiment on Barnyard Grass [2] (setting [9]), 100%; in the experiment on Barnyard Grass [2] (safening agent alone 1.12 kg/h), 0%.
